{
  "source": "paper PMC7468108",
  "about": "(Communications Biology, 2020)",
  "target": "T1, hIAPP (Homo sapiens, UniProt P10997)",
  "T1 construct": "hIAPP is a 37-amino acid neuroendocrine peptide hormone; purchased Peptide 2.0 (USA)",
  "T1 sequence (P10997 34-70 limits assumed)": "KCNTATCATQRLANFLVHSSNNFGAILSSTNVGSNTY",
  "test": "CD spectroscopy of hIAPP aggregated with the tested molecules",
  "settings": "increasing doses up to 5-fold molar excess",
  "protocol": "CD analysis was performed also for hIAPP (Fig. 2f and Supplementary Fig. 5). […] With different degrees of effectiveness, the presence of all tested hybrid molecules caused a reduction of the intensity of the CD signal, indicating an overall lower of β-sheet content of hIAPP (Fig. 2f and Supplementary Fig. 5).\nThe blank was subtracted from the acquired CD spectra. For the CD study in the presence of the tryptophan-galacosylamine molecules, the spectra of hybrid molecules were also recorded separately and subtracted from the respective sample spectra. The normalized data were plotted using Origin pro 2015 software.",
  "data": [
    {"compound": "NC(Cc1c[nH]c2ccccc12)C(=O)NC(Cc1c[nH]c2ccccc12)C(=O)O", "note": "(stereo not shown) [WW]", "values": [
      {"measurement": "effect on hIAPP secondary structure (CD), in words", "result": "substantial effect"}
    ]}
  ]
}
